Literature values in publication PMC7111419 (European Journal of Medicinal Chemistry, 2019).

Experiments:
SENCAR mice = conditions: cited from earlier work
βGLU = conditions: value recurrent in literature; cited from earlier work
human liver-derived βGLU = conditions: 1 mM; cited from earlier work
female Wistar rats = conditions: i.p. pre or cotreatment, 3 mg/ml, 10 mg/ml or 10 mg/0.5 ml, 6 days; cited from earlier work
βGLU in breast milk = conditions: 10 μM; cited from earlier work
male albino Wistar rats = conditions: 7.5 mg/kg body weight/day intragastric, 7 days; cited from earlier work
rat neutrophils = conditions: read-out: IC50, βGLU release; cited from earlier work

O=C(O)[C@@H](O)[C@H]1OC(=O)[C@H](O)[C@H]1O [Compound 5, D-saccharic acid-1,4-lactone]
reduction of DMBA-induced oxidative DNA damage and mutations in codon 61 of Ha-ras gene (SENCAR mice): up to 78% | IC50 (βGLU): ~40 µM | inhibition of hydrolytic action on quercetin glucuronides (human liver-derived βGLU): completely inhibited | severity of CPT-11 induced small-intestine mucosal damage (female Wistar rats): reduced the severity | inhibition of βGLU in breast milk (βGLU in breast milk): over 90%

Cc1ccc(C(C)C)c(O)c1 [Compound 54, thymol]
activities of lysosomal enzymes (βGLU, β-galactosidase, cathepsin B and D) in serum and heart (male albino Wistar rats): potently inhibited to near-normal

C[C@@H]1C(=O)O[C@H]2[C@H](O)[C@@]34[C@H]5C[C@@H](C(C)(C)C)[C@]36[C@@H](OC(=O)[C@@H]6O)O[C@@]4(C(=O)O5)[C@@]12O [ginkgolide B]
IC50 (rat neutrophils): 6.63 µM
